Assay results published in PubChem BioAssay AID2060485 (Molecular Pharmacology Branch, DTP, NCI, 2025).

Test system: A375 multi-cell spheroids with HUVEC/MSC, viability
Assay: Anticancer human tumor A375 cell line growth inhibition [GQUAD];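 also: spheroids exposed to compounds for seven days before readout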
Details: for IC50: curve of first compound; for viability, T/C: stronger effect = lower value
Excerpt: DNA G-quadruplex Stabilizer Agents in Combinations in Complex Spheroids
A high-throughput screen of multi-cell type tumor spheroids was designed to identify active combinations of DNA G-quadruplex stabilizer agents and targeted small molecules. Complex spheroids include a stromal component modeled by human endothelial cells (HUVEC) and fibroblasts modeled by human mesenchymal stem cells (MSCs). The concentration ranges selected for each drug and investigational agent were based upon clinically achievable concentrations if the clinical Cmax of the agent was known.
Compounds. The drugs and investigational agents: pidnarulex (CX-5461; NSC782164), APTO-253 (NSC789042), BRACO-19 (NSC847499), peposertib (NSC802822), ceralasertib (NSC780249), elimusertib (NSC800525), camonsertib (NSC841442), AZD-1390 (NSC803789), olaparib (NSC753686), talazoparib (NSC767125), ART-558 (NSC835418), sotorasib (NSC818433), MRTX-1133 (NSC836407), SN-38 (NSC673596), topotecan (NSC609699), etoposide (NSC141540), doxorubicin (NSC123127), gemcitabine (NSC613327), 5-fluorouracil (NSC19893), paclitaxel (NSC125973), vemurafenib (NSC761431), panobinostat (NSC761190), R-306465 (JNJ-16241199; NSC773264), adavosertib (NSC754352), TP-3654 (NSC805149), carboplatin (NSC241240), KSQ-4279 (NSC840948), and staurosporine (NSC755774) were obtained from the National Cancer Institute (NCI) Developmental Therapeutics Program Chemical Repository (34). The FDA-approved anticancer drug set is available from the NCI Developmental Therapeutics Program. […] The stock solutions were prepared in dimethyl sulfoxide (DMSO, Sigma-Aldrich, St. Louis, MO, cat. D2650) at 800-fold the tested concentration and stored at -70 degrees C prior to their use. All drugs and investigational agents were tested over a range starting from a high concentration at or near the clinical Cmax and decreasing in half-log increments. If the clinical Cmax for an agent had not been determined, the highest concentration tested was 10 microM.
2.3 Cell Culture. All cells were maintained in an incubator at 37 degrees C and 5% CO2 with 95% humidity. The PDC lines were cultured according to standard operating procedures established by the NCI PDMR. All PDCs were thawed and cultured in Matrigel-coated flasks prepared with a working solution of 1X Ham's F-12 nutrient mix, without supplementation (Invitrogen, cat. 11765054), 100 U/mL penicillin-streptomycin (Invitrogen, cat. 15140122), and 2.5% Matrigel (Corning Inc., cat. 354248) for the first three passages. The 857933-349-R-J2-PDC line was cultured in 6C/Colon 1B media, which includes advanced DMEM/F-12 (Thermo Fisher Scientific, cat. 12634028), 10 mM HEPES (Thermo Fisher Scientific, cat. 15630080), 1X GlutaMAX supplement (Thermo Fisher Scientific, cat. 35050061), 0.1 mg/mL primocin (InvivoGen, cat. ant-pm-2), 10% defined fetal bovine serum, heat inactivated (HyClone Laboratories Inc., cat. SH30070.03HI), 50% L-WRN conditioned media (ATCC, cat. CRL-3276), 1.25 mM N-Acetyl-L-cysteine (Sigma-Aldrich, cat. A9165), 10 mM nicotinamide (Sigma-Aldrich, cat. N0636), 1X B-27 supplement (Thermo Fisher Scientific, cat. 17504044), 1X N-2 supplement (Thermo Fisher Scientific, cat. 17502048), 10 microM Y-27632 dihydrochloride (Tocris Bioscience, cat. 1254), and 50 ng/mL human EGF recombinant protein (Thermo Fisher Scientific, cat. PHG0311). The 485176-168-R4-J1-PDC line was cultured in Panc media, which includes all 6C/Colon 1B media components plus 100 ng/mL human FGF-10 (Thermo Fisher Scientific, cat. 100-26), 500 nM SB-431542 (Selleckchem, cat. S1067), and gastrin (Tocris, cat. 3006).
[…]

[1] = second compound 0.0316 µM, first compound 0.0316 µM
[2] = second compound 0.0316 µM, first compound 0.1 µM
[3] = second compound 0.0316 µM, first compound 0.316 µM
[4] = second compound 0.0316 µM, first compound 1 µM
[5] = second compound 0.0316 µM, first compound 3.16 µM
[6] = second compound 0.0316 µM, first compound 10 µM
[7] = second compound 0.1 µM, first compound 0.0316 µM
[8] = second compound 0.1 µM, first compound 0.1 µM
[9] = second compound 0.1 µM, first compound 0.316 µM
[10] = second compound 0.1 µM, first compound 1 µM
[11] = second compound 0.1 µM, first compound 3.16 µM
[12] = second compound 0.1 µM, first compound 10 µM
[13] = second compound 0.316 µM, first compound 0.0316 µM
[14] = second compound 0.316 µM, first compound 0.1 µM
[15] = second compound 0.316 µM, first compound 0.316 µM
[16] = second compound 0.316 µM, first compound 1 µM
[17] = second compound 0.316 µM, first compound 3.16 µM
[18] = second compound 0.316 µM, first compound 10 µM
[19] = second compound 1 µM, first compound 0.0316 µM
[20] = second compound 1 µM, first compound 0.1 µM
[21] = second compound 1 µM, first compound 0.316 µM
[22] = second compound 1 µM, first compound 1 µM
[23] = second compound 1 µM, first compound 3.16 µM
[24] = second compound 1 µM, first compound 10 µM
[25] = second compound 3.16 µM, first compound 0.0316 µM
[26] = second compound 3.16 µM, first compound 0.1 µM
[27] = second compound 3.16 µM, first compound 0.316 µM
[28] = second compound 3.16 µM, first compound 1 µM
[29] = second compound 3.16 µM, first compound 3.16 µM
[30] = second compound 3.16 µM, first compound 10 µM
[31] = second compound 10 µM, first compound 0.0316 µM
[32] = second compound 10 µM, first compound 0.1 µM
[33] = second compound 10 µM, first compound 0.316 µM
[34] = second compound 10 µM, first compound 1 µM
[35] = second compound 10 µM, first compound 3.16 µM
[36] = second compound 10 µM, first compound 10 µM

For `COc1ncnc(C2CC2)c1-c1ncc2cnn(Cc3ccc(-c4nc(C(F)(F)F)cn4C(C)C)cc3)c2n1` + Cc1[nH]c2ccc(F)cc2c1-c1nc2c3cccnc3c3ncccc3c2[nH]1, the IC50 (second compound 0.0316 µM) was over 10000 nM, the IC50 (second compound 0.1 µM) was over 10000 nM and the IC50 (second compound 0.316 µM) was over 10000 nM. The IC50 (second compound 1 µM) was over 10000 nM, the IC50 (second compound 3.16 µM) was 3730 nM and the IC50 (second compound 10 µM) was 6580 nM. It also gave a viability, T/C [1] of 102%, a viability, T/C [2] of 107% and a viability, T/C [3] of 109%. It also gave a viability, T/C [4] of 108%, a viability, T/C [5] of 107% and a viability, T/C [6] of 106%. The viability, T/C [7] was 119%, the viability, T/C [8] was 106% and the viability, T/C [9] was 93.8%. The viability, T/C [10] was 112%, the viability, T/C [11] was 107% and the viability, T/C [12] was 123%. For the same compound, the viability, T/C [13] was 104%, the viability, T/C [14] was 104% and the viability, T/C [15] was 108%. It also gave a viability, T/C [16] of 106%, a viability, T/C [17] of 112% and a viability, T/C [18] of 108%. It also gave a viability, T/C [19] of 104%, a viability, T/C [20] of 106% and a viability, T/C [21] of 99.9%. For the same compound, the viability, T/C [22] was 106%, the viability, T/C [23] was 100% and the viability, T/C [24] was 104%. The viability, T/C [25] was 72.2%, the viability, T/C [26] was 72.5% and the viability, T/C [27] was 77%. It also gave a viability, T/C [28] of 61%, a viability, T/C [29] of 54.1% and a viability, T/C [30] of 34.3%. It also gave a viability, T/C [31] of 88.9%, a viability, T/C [32] of 92.9% and a viability, T/C [33] of 87.2%. For the same compound, the viability, T/C [34] was 79.7%, the viability, T/C [35] was 61.3% and the viability, T/C [36] was 43.5%.

`CC1COCCN1c1cc(-c2ccnn2C)c2ccnc(-c3ccn[nH]3)c2n1` (centres undefined) + Cc1[nH]c2ccc(F)cc2c1-c1nc2c3cccnc3c3ncccc3c2[nH]1 showed an IC50 (second compound 0.0316 µM) of 628 nM, an IC50 (second compound 0.1 µM) of 613 nM and an IC50 (second compound 0.316 µM) of 454 nM. For the same compound, the IC50 (second compound 1 µM) was 384 nM, the IC50 (second compound 3.16 µM) was 35.1 nM and the IC50 (second compound 10 µM) was 52.7 nM. It also gave a viability, T/C [1] of 111%, a viability, T/C [2] of 108% and a viability, T/C [3] of 75.3%. The viability, T/C [4] was 33.3%, the viability, T/C [5] was 13.1% and the viability, T/C [6] was 12.3%. It also gave a viability, T/C [7] of 116%, a viability, T/C [8] of 113% and a viability, T/C [9] of 66.4%. It also gave a viability, T/C [10] of 39%, a viability, T/C [11] of 12.2% and a viability, T/C [12] of 10.8%. It also gave a viability, T/C [13] of 114%, a viability, T/C [14] of 128% and a viability, T/C [15] of 62.6%. It also gave a viability, T/C [16] of 34%, a viability, T/C [17] of 13.5% and a viability, T/C [18] of 12.7%. The viability, T/C [19] was 97.7%, the viability, T/C [20] was 87.3% and the viability, T/C [21] was 52.1%. The viability, T/C [22] was 30%, the viability, T/C [23] was 15.6% and the viability, T/C [24] was 14%. It also gave a viability, T/C [25] of 52.7%, a viability, T/C [26] of 29.4% and a viability, T/C [27] of 23%. For the same compound, the viability, T/C [28] was 18.2%, the viability, T/C [29] was 11.8% and the viability, T/C [30] was 9.5%. It also gave a viability, T/C [31] of 63.3%, a viability, T/C [32] of 30.2% and a viability, T/C [33] of 27.9%. For the same compound, the viability, T/C [34] was 21.4%, the viability, T/C [35] was 18% and the viability, T/C [36] was 11.7%.
